ChEMBL document CHEMBL1147551, “Synthesis and inhibition of Src kinase activity by 7-ethenyl and 7-ethynyl-4-anilino-3-quinolinecarbonitriles” (Bioorg Med Chem Lett, 2004)

How the values were obtained:
[1] = target: Proto-oncogene tyrosine-protein kinase Src (Homo sapiens, UniProt P12931); assay: Enzyme inhibitory activity against recombinant human Src protein tyrosine kinase
[2] = organism: Rattus norvegicus; assay: Inhibitory activity against Src-dependent cell proliferation assay using rat fibroblasts
[3] = organism: Rattus norvegicus; assay: Inhibitory activity against Src-dependent cell proliferation assay, using rat fibroblasts; type: functional

Proto-oncogene tyrosine-protein kinase Src, sequence (P12931 2-536 limits assumed): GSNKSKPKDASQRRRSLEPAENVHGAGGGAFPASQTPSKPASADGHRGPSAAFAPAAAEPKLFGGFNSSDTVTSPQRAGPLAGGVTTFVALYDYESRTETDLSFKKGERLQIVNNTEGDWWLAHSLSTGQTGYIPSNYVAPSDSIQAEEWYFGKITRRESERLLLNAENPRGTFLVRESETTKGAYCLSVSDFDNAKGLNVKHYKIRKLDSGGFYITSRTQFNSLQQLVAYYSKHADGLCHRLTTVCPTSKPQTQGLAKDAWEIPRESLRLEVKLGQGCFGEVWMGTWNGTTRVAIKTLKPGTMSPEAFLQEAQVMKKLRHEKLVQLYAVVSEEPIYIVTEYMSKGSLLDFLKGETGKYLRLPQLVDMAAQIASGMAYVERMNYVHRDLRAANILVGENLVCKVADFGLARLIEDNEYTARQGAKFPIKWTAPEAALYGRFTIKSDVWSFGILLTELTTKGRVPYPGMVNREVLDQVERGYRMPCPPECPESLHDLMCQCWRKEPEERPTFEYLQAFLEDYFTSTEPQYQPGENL

SMILES	IC50 [1] [nM]	IC50 [2] [nM]	Inhibition [3] [%]
COc1cc(Nc2c(C#N)cnc3cc(/C=C/c4ccc(-c5ccccc5)cc4)ccc23)c(Cl)cc1Cl	2300	> 10000	–
COc1cc(Nc2c(C#N)cnc3cc(C#Cc4cccnc4)c(OC)cc23)c(Cl)cc1Cl	–	270	–
C=Cc1ccc2c(Nc3cc(OC)c(Cl)cc3Cl)c(C#N)cnc2c1	97	9300	–
COc1cc(Nc2c(C#N)cnc3cc(/C=C/c4ccncc4)c(OC)cc23)c(Cl)cc1Cl	–	80	–
COc1cc(Nc2c(C#N)cnc3cc(/C=C/c4ccncc4)ccc23)c(Cl)cc1Cl	–	230	–
COc1cc(Nc2c(C#N)cnc3cc(C#Cc4ccc(-c5ccccc5)cc4)ccc23)c(Cl)cc1Cl	420	> 10000	–
N#Cc1cnc2cc(/C=C/c3ccncc3)ccc2c1Nc1ccc(Cl)cc1Cl	–	1200	–
COc1cc(Nc2c(C#N)cnc3cc(C#Cc4cccnc4)ccc23)c(Cl)cc1Cl	–	650	–
COc1cc(Nc2c(C#N)cnc3cc(C#Cc4ccncc4)ccc23)c(Cl)cc1Cl	83	2700	–
COc1cc(Nc2c(C#N)cnc3cc(C#Cc4ccccc4)ccc23)c(Cl)cc1Cl	320	> 10000	–
COc1cc(Nc2c(C#N)cnc3cc(CCc4ccncc4)ccc23)c(Cl)cc1Cl	–	> 10000	–
COc1cc(Nc2c(C#N)cnc3cc(C#Cc4ccccc4)c(OC)cc23)c(Cl)cc1Cl	57	3000	–
COc1cc(Nc2c(C#N)cnc3cc(C#Cc4ccccn4)ccc23)c(Cl)cc1Cl	530	> 10000	–
COc1cc(Nc2c(C#N)cnc3cc(/C=C/c4ccccc4)c(OC)cc23)c(Cl)cc1Cl	65	1500	–
COc1cc(Nc2c(C#N)cnc3cc(/C=C/c4ccccn4)ccc23)c(Cl)cc1Cl	19	–	50
COc1cc(Nc2c(C#N)cnc3cc(/C=C/c4cccnc4)c(OC)cc23)c(Cl)cc1Cl	8.4	140	–

Further lines, with some results ahead:

IC50 [1] [nM]	SMILES	IC50 [2] [nM]	Inhibition [3] [%]
1600	O=C(O)c1cnc2cc(/C=C/c3ccncc3)ccc2c1Nc1ccc(Cl)cc1Cl	> 10000	–
180	COc1cc(Nc2c(C#N)cnc3cc(/C=C/c4ccccc4)ccc23)c(Cl)cc1Cl	2700	–
320	COc1cc(Nc2c(C#N)cnc3cc(/C=C/c4ccc5ccccc5c4)ccc23)c(Cl)cc1Cl	> 10000	–
3100	CCOc1cc(Nc2c(C#N)cnc3cc(/C=C/c4ccncc4)ccc23)c(Cl)cc1Cl	> 10000	–
380	N#Cc1cnc2cc(/C=C/c3ccncc3)ccc2c1Oc1ccc(Cl)cc1Cl	7200	–
200	N#Cc1cnc2cc(C#Cc3cccnc3)ccc2c1Nc1ccc(Cl)cc1Cl	3900	–
1000	N#Cc1cnc2cc(/C=C/c3ccncc3)ccc2c1NCc1ccc(Cl)cc1Cl	> 10000	–
15	COc1cc(Nc2c(C#N)cnc3cc(/C=C/c4cccnc4)ccc23)c(Cl)cc1Cl	230	–
12000	CCOC(=O)c1cnc2cc(/C=C/c3ccncc3)ccc2c1Nc1ccc(Cl)cc1Cl	> 10000	–
